Patent US10604473B2, “Lipids that increase insulin sensitivity and methods of using the same” (Beth Israel Deaconess Medical Center, Inc., priority 2013, dated 2020)
Entries after “also recorded” stand apart in the source; their conditions may differ.

What was measured:
STC-1 cells [1] = assay: GLP-1 secretion from STC-1 enteroendocrine cells (ELISA); assay type: cell-based
Procedure: For the experiments summarized in FIG. 41 STC-1 cells were incubated with vehicle (DMSO), 9-PAHSA, 5-PAHSA or 9-OAHSA at the indicated concentrations or lineolic acid (100 uM) as a positive control. Media was harvested and GLP-1 was measured by ELISA.
For the experiments summarized in FIG. 42, the same protocol as described for FIG. 41 was used, except in this experiment a time course was performed. For both FIG. 41 and FIG. 42, for GLP-1 secretion STC1 cells were washed 3× with serum free culture media followed by stimulation with FAHFAs or vehicle at the indicated concentrations and timepoints. Levels of active GLP-1 were measured by ELISA.

STC-1 cells [2] = assay: ERK phosphorylation in STC-1 cells (immunoblot); assay type: cell-based; conditions: 15 minutes stimulation
Procedure: For the experiments summarized in FIG. 40, STC-1 cells were incubated with 9-PAHSA, 5-PAHSA or 9-OAHSA at the indicated concentrations. Cells were harvested and lysed and proteins were separated by SDS PAGE and transferred onto nitrocellulose filters. The phosphorylation of ERK and the amount of total ERK was determined by immunoblotting with antibodies specific for total or phosphor-ERK. DMSO was the control. For ERK phosphorylation, cells were serum deprived overnight and stimulated with FAHFAs or vehicle as indicated for 15 minutes followed by lysis in RIPA buffer and analysis by SDS-PAGE

GPR120 = target: T1, GPR120 (Homo sapiens, UniProt Q5NUL3); assay: PathHunter beta-Arrestin GPCR assay; assay type: cell-based
T1 construct: beta-galactosidase enzyme fragment (ProLink)
T1 sequence (Q5NUL3 1-377 isoform Q5NUL3-1): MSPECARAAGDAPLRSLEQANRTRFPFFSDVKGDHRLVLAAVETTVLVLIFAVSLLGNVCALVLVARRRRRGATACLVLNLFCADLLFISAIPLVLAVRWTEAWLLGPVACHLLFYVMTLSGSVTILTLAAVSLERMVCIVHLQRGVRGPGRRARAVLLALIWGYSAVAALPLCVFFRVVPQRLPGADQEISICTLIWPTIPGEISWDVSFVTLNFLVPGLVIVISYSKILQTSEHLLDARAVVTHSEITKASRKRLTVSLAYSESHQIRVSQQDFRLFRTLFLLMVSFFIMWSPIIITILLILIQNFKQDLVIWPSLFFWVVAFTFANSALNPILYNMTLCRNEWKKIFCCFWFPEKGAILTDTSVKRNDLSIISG
From the text: FIGS. 57A and 57B are graphs showing GPR120 activation by 9-PAHSA and GPR120 knockdown in 3T3-L1 adipocytes. Specifically, FIG. 57A depicts a GPR120 activity assay using the PathHunter® eXpress GPR120L β-Arrestin GPCR Assay (DiscoverX). n=3 wells per condition. FIG. 57B is a bar graph showing validation of GPR120 knockdown in differentiated 3T3-L1 adipocytes. 3T3-L1 adipocytes (Day 8 post differentiation) were transfected with non-targeting (control) siRNA or three individual GPR120 targeting siRNA's individually or in combination. 48 h post-transfection GPR120 mRNA levels were measured by qPCR and normalized to TBP mRNA levels. n=3 wells per condition.
For the experiments summarized in FIGS. 43-45, the fragment based GPCR assay from DiscoveRx (PATHHUNTER® β-Arrestin assay) was used to as per manufacturer's instructions to determine activation of specific GPCRs as indicated in FIGS. 43-45.

[3] = test system: insulin-resistant high-fat fed mice; assay: Oral glucose tolerance test in HFD-fed mice; assay type: in vivo, mouse; conditions: for basal glycemia: 30 minutes after oral administration; for area under the glucose excursion curve / glucose tolerance: OGTT, gavage 30 min prior
Procedure: Area under the curve (AUC), *p<0.05 compared to vehicle. […] Area above the curve (AAC). *p<0.05 compared to vehicle. […] Area under the curve (AUC). *p<0.05 compared to vehicle. FIG. 53D is a bar graph showing serum insulin levels 5 min post glucose challenge in chow-fed mice gavaged with 5-PAHSA or vehicle (glucose values shown in FIG. 53C). n=12-14 per group, *p<0.05 compared to vehicle by t-test. FIG. 53E is a bar graph showing serum GLP-1 levels 5 min post glucose challenge from chow-fed mice gavaged with 5-PAHSA or vehicle (glucose levels in FIG. 53C). n=12-14 per group, *p<0.05 compared to vehicle by t-test. FIG. 53F are bar graphs showing insulin secretion from primary human islets from two independent donors. Islets were incubated with low (2.5 mM) or high (20 mM) glucose ex vivo in the presence of 5-PAHSA (20 μM) or vehicle control. n=100 islets per condition, *p<0.05 compared to control 2.5 mM glucose, ^#p<0.05 compared to respective treatments at 2.5 mM glucose, ^$p<0.05 compared to control or diluents at 20 mM glucose by t-test. FIG. 53G are bar graphs showing active GLP-1 secretion from STC-1 cells in response to 5-PAHSA (5-P), 9-PAHSA (9P), […] (LA), GW9508 (GW) or vehicle control (DMSO). n=4 per group, *p<0.05 compared to vehicle by t-test. All data are mean±s.e.m. See also FIG. 56.

| Structure (SMILES) | GLP-1 secretion (STC-1 cells [1]) | time course for GLP-1 secretion (STC-1 cells [1]) | ERK phosphorylation (STC-1 cells [2]) | GPR120 activation (GPR120) | basal glycemia [3] | area under the glucose excursion curve [3] | glucose tolerance [3] |
| --- | --- | --- | --- | --- | --- | --- | --- |
| CCCCCCCCCCCCCCCC(=O)OC(CCCCCCCCC)CCCCCCCC(=O)O (stereo not shown) [9-PAHSA, palmitoyl-9-hydroxystearic acid] | rapidly stimulated GLP-1 secretion; also recorded: induce GLP-1 secretion | very rapid and sustained | induce ERK phosphorylation | dose-dependently activated GPR120; also recorded: is a ligand for the GPCR, GPR120; also recorded: activate GPR120 | lowered basal glycemia | reduced area under the glucose excursion curve | improved glucose tolerance |
| CCCCCCCCCCCCCCCC(=O)OC(CCCCCCCCCCCCC)CCCC(=O)O (stereo not shown) [5-PAHSA] | rapidly stimulated GLP-1 secretion; also recorded: induce GLP-1 secretion | – | induce ERK phosphorylation | dose-dependently activated GPR120; also recorded: activate GPR120 | lowered basal glycemia | reduced area under the glucose excursion curve | improved glucose tolerance |
